Data: US10316008B2, “KCNQ potassium channel agonist, and preparation method therefor and use thereof” (SHANGHAI INSTITUTE OF MATERIA MEDICA, CHINESE ACADEMY OF …, priority 2014, dated 2019)

Experiments:
[1] = molecular target: T1, KCNQ2 homotetramer channel (Homo sapiens, UniProt O43526); experiment: KCNQ2 channel dose-response curve in CHO-K1 cells transfected with KCNQ2 plasmid; assay type: cell-based
T1 construct: expressed in transfected cells; host or cells: CHO-K1
Protocol: (§1) The culture medium for Chinese hamster oocytes (CHO-K1) (Culture Collection of Chinese Academy of Sciences): 50/50 DMEM/F-12 (Cellgro, Manassas, Va.), added with 10% fetal bovine serum (FBS) (Gibco, Australia) and 2 mM L-glutamic acid (Invitrogen). Expression of KCNQ channels: 24 h before transfection, CHO-K1 spreaded on a dish with a diameter of 60 mm. Lipofectamine 2000™ agent (Invitrogen) was used for Transfection according to the protocol thereof. GFP (green fluorescent protein) was cotransfected to be used as a indication of successful converting into KCNQ plasmid.
(§2) Whole-cell voltage-clamp recording was performed on an Axopatch-200B amplifier (Molecular Devices, Sunnyvale, Calif.) at room temperature. The electrode was made by drawing borosilicate glass capillary (World Precision Instruments, Sarasota, Fla.). The electric resistance of the electrode filled with an intracellular fluid is 3 to 5 MΩ. The composition of the intracellular fluid (1 L) was as follows: 145 mM KCl(Sigma), 1 mM MgCl2(Sigma), 5 mM EGTA(Sigma), 10 mM HEPES(Sigma) and 5 mM MgATP(Sigma) (pH was adjusted to 7.3 with KOH). During the recording, an extracellular fluid was continuously perfused by using a BPS perfusion system (ALA Scientific Instruments, Westburg, N.Y.). The composition of the extracellular fluid (1 L) was as follows: 140 mM NaCl(Sigma), 5 mM KCl(Sigma), 2 mM CaCl2(Sigma), 1.5 mM MgCl2(Sigma), 10 mM HEPES(Sigma) and 10 mM glucose(Sigma) (pH was adjusted to 7.4 with NaOH). Electric signal was filtered at 1 kHz and further converted into digital signal by using pClamp 9.2 software (Molecular Devices, Sunnyvale, Calif.) in DigiData 1322A. Series resistors compensate 60 to 80%. Up to date, multivoltage scheme was generally adopted, wherein the clamp voltage was set at −80 mV, stimulating voltage was a gradient voltage from −90 mV to 60 mV with interval of 10 mV, and the stimulating time for each voltage was 2000 ms.
(§3) The experimental procedure was the same as that in Electrophysiological Example 1. […]

[2] = molecular target: T2, KCNQ2/3 heterotetramer channel (Homo sapiens, UniProt O43525+O43526); experiment: KCNQ2/3 heterotetramer channel dose-response curve in CHO-K1 cells cotransfected with KCNQ2 and KCNQ3 plasmids; assay type: cell-based
T2 construct: expressed in transfected cells; host or cells: CHO-K1
Protocol: as §1, §2, §3

T1 sequence (O43526 whole entry): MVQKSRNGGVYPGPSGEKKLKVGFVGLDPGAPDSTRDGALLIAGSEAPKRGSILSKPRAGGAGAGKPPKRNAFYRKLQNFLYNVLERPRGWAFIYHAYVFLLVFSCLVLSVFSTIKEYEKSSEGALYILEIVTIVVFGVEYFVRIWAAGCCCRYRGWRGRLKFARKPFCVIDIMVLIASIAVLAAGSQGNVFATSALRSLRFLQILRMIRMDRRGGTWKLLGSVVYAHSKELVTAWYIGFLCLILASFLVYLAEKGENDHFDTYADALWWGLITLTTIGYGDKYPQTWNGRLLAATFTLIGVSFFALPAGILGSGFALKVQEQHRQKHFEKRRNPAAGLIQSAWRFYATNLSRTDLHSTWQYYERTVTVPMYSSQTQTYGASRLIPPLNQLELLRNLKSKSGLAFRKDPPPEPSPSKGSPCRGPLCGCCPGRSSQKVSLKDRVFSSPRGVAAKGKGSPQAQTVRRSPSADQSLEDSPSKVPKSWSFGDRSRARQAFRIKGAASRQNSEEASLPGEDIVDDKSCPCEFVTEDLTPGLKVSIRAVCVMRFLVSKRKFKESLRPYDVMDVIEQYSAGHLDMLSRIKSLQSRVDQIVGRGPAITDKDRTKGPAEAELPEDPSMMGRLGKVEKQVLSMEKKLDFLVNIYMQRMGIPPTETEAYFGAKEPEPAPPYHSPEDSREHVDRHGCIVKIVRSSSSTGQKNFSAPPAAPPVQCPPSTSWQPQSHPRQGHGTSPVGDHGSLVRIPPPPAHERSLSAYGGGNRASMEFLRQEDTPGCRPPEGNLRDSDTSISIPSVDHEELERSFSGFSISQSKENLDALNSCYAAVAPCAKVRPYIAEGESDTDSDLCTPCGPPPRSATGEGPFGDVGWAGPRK

C#CCN(Cc1ccc(F)cc1)c1cc(C)c(NC(=O)OC)c(C)c1 [Compound K43, methyl 4-(N-parafluorobenzyl-N-propargyl-amino)-2,6-dimethylphenylaminoformate]
EC50 ([1]; FIG. 1, Boltzmann fit, read-out: EC50): 0.00153 µM
agonistic activity on KCNQ2 homotetramer channel relative to RTG ([1]; fold of RTG): more than 800 times
EC50 ([2]; FIG. 2, Boltzmann fit): 0.049 µM
agonistic activity on KCNQ2/3 heterotetramer channel relative to K21 ([2]; fold of K21): ≥ 20 times
agonistic activity on KCNQ2/3 heterotetramer channel relative to RTG ([2]; fold of RTG): ≥ 30 times
